Experiment [1] addresses CDK2/Cyclin E1 complex (Homo sapiens, UniProt P24941). The experiment is described as follows: CDK2 kinase inhibition assay (Caliper/LabChip EZ Reader). Type of experiment: biochemical. To be noted: CDK2/Cyclin E1 0.5 nM, ATP 2 mM, 35 min at 27° C. The method, boiled down:
(§1)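 Caliper/LabChip mobility-shift kinase assays at 27° C. CDK9/Cyclin T1 8 nM with 2 μM 5-FAM-CDK9tide, 10 mM MgCl2, 15 min; CDK12/Cyclin K 50 nM with 5-FAM-CDK9tide 2 μM, 2 mM MgCl2, 3 hr; CDK2/Cyclin E1 0.5 nM with 5-FAM-CDK7tide 2 μM, 2 mM MgCl2, 35 min; CDK7 35 min.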

For experiment [2], the target named is CDK7/Cyclin H/MAT1 complex (Homo sapiens, UniProt P50613). The experiment is described as follows: CDK7 kinase inhibition assay (Caliper/LabChip EZ Reader). Type of experiment: biochemical. To be noted: CDK7/Cyclin H/MAT1 6 nM, ATP 2 mM, 35 min at 27° C. The method, boiled down:
as §1

Experiment [3] addresses CDK9/Cyclin T1 complex (Homo sapiens, UniProt P50750). As to the kind of experiment: CDK9 kinase inhibition assay (Caliper/LabChip EZ Reader). Type of experiment: biochemical. To be noted: CDK9/Cyclin T1 8 nM, ATP 2 mM, 15 min at 27° C. The method, boiled down: as §1
Experiment [4] concerns the target T1, CDK12 (aa686-1082)/Cyclin K complex (Homo sapiens, UniProt Q9NYV4).
T1 construct: CDK12 (aa686-1082)/Cyclin K complex
As to the kind of experiment: CDK12 kinase inhibition assay (Caliper/LabChip EZ Reader). Type of experiment: biochemical. To be noted: CDK12 (aa686-1082)/Cyclin K 50 nM, ATP 2 mM, 3 hr at 27° C. The method in brief:
as §1

Experiment [5] concerns HCC70 cells. As to the kind of experiment: Inhibition of proliferation of HCC70 cells (CyQUANT Direct, 72 hour). It counts as cell-based, human. To be noted: read-out: Inhibition of Proliferation of HCC70 Cells (calculated IC50). The method, boiled down:
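Human triple-negative breast cancer cells grown in RPMI-1640 + 10% FBS at 37 °C, 5% CO2, treated with compounds from 4 μM to […] in 0.5 log steps. Proliferation over 72 h was read by CyQUANT Direct.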

Sequence of CDK7/Cyclin H/MAT1 complex (P50613 whole entry): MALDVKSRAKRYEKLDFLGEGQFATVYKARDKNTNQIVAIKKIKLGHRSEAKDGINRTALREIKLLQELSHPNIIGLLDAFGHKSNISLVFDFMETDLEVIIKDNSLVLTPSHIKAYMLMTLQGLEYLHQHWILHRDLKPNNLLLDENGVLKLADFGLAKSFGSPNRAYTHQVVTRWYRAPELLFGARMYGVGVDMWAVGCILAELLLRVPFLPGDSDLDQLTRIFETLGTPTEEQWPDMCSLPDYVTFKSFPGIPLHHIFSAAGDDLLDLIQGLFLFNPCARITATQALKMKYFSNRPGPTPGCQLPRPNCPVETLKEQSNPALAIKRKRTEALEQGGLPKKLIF
Sequence of CDK7/Cyclin H/MAT1 complex (P51946 whole entry partner): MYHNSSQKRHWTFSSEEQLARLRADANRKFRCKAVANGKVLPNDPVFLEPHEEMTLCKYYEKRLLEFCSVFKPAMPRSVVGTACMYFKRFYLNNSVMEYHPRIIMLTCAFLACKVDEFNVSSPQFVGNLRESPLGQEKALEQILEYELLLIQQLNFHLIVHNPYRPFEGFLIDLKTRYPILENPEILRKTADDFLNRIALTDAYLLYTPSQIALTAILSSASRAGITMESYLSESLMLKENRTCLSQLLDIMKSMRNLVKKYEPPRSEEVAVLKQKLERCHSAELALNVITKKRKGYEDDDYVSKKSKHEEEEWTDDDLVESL
Sequence of CDK7/Cyclin H/MAT1 complex (P51948 whole entry partner): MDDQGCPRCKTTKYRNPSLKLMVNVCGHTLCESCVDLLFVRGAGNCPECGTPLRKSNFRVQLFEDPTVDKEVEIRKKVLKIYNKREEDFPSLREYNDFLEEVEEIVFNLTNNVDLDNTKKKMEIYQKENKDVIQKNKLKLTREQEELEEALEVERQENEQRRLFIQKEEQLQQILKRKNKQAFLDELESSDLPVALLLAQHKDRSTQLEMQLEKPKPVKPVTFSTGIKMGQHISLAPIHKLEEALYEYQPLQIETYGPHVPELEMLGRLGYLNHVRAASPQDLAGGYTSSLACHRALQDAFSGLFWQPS
T1 sequence (Q9NYV4 686-1082): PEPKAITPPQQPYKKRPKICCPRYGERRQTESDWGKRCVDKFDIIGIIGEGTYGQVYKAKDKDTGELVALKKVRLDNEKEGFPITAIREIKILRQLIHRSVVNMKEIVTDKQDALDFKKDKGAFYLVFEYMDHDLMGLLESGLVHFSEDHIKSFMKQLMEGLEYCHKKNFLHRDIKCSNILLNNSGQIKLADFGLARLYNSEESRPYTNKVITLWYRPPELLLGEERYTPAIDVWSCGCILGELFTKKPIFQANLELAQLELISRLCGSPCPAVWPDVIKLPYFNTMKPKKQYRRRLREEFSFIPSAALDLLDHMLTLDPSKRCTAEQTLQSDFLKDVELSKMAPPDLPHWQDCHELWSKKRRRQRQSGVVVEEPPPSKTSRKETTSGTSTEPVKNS
T1 sequence (O75909 whole entry partner, the tested form may be a part): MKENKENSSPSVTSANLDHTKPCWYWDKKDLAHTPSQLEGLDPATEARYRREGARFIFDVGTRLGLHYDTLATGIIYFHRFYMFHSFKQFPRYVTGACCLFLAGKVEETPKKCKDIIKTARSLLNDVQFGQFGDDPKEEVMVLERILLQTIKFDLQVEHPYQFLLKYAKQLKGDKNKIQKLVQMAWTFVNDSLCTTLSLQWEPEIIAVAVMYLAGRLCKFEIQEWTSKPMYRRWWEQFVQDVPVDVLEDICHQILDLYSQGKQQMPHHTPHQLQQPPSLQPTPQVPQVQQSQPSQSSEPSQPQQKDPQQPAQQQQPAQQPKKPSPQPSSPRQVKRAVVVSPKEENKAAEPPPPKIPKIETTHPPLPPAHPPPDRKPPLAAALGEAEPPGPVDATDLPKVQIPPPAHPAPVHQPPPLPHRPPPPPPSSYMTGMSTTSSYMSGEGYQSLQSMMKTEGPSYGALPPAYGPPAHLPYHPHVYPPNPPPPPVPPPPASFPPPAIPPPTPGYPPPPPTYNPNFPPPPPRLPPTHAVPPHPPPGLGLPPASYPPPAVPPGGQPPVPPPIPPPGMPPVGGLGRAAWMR
Sequence of CDK9/Cyclin T1 complex (P50750 whole entry, the tested form may be a part): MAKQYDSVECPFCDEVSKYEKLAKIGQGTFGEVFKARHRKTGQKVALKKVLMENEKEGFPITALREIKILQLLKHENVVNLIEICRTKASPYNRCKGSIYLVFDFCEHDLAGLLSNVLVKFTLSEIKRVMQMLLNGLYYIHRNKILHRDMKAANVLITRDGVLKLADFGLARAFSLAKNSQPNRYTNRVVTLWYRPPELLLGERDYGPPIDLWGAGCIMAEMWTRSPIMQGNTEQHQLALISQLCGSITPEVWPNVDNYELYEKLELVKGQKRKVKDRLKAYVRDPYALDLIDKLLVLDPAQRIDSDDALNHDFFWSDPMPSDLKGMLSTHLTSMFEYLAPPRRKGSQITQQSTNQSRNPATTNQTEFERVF
Sequence of CDK9/Cyclin T1 complex (O60563 whole entry partner, the tested form may be a part): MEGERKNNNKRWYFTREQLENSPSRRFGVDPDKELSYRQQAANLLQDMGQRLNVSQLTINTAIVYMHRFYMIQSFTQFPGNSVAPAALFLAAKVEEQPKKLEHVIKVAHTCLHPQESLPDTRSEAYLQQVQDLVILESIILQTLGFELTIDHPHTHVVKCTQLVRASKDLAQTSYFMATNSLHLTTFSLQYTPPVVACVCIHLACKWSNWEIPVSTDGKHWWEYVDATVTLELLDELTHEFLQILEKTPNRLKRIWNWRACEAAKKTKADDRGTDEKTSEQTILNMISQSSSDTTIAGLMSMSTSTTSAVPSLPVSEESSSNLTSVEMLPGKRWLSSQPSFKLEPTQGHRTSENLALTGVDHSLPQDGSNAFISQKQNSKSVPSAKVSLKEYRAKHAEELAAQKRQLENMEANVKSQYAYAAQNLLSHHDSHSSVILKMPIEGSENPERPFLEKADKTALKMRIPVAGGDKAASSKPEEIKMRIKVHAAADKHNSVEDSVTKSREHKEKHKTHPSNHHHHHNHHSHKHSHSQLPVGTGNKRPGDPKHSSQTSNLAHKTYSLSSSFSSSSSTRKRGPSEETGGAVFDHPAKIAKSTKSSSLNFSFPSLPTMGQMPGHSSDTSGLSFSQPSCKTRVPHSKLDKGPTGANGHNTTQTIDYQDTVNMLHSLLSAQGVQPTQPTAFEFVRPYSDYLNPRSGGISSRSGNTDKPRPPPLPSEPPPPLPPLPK

Take `N#CC1CCN(C(=O)c2ccc3c(-c4nc(NC5CCCNC5)ncc4C(F)(F)F)c[nH]c3c2)C1` (stereo not drawn) [Compound 293]: the IC50 in experiment [1] is 0.2 to 5 µM; in experiment [2] it was under 0.02 µM; in experiment [3], 0.2 to 5 µM; in experiment [4], 0.2 to 5 µM; in experiment [5] it was 0.1 to 1 µM.

For `Cn1ccc(-c2ccc3c(-c4nc(NC5CCCNC5)ncc4C(F)(F)F)c[nH]c3c2)n1` (stereo not drawn) [Compound 303], the IC50 in experiment [1] is 0.2 to 5 µM; in experiment [2] it was under 0.02 µM; in experiment [3], 0.2 to 5 µM; in experiment [4], 0.2 to 5 µM; in experiment [5] it was 0.1 to 1 µM.

`Cn1cc(-c2nc(NC3CCCNC3)ncc2C(F)(F)F)c2cccc(S(C)(=O)=O)c21` (stereo not drawn) [Compound 296]: the IC50 in experiment [1] is at least 5 µM; in experiment [2], 0.02 to 0.2 µM; in experiment [3], at least 5 µM; in experiment [4], at least 5 µM; in experiment [5], 1 to 5 µM.

In the case of `CCc1cnc(N[C@H]2CCCNC2)nc1-c1c[nH]c2c(F)c(C#N)ccc12` [Compound 360], the IC50 in experiment [1] was at least 5 µM; in experiment [2], 0.02 to 0.2 µM; in experiment [3], at least 5 µM; in experiment [4] it was at least 5 µM; in experiment [5], 1 to 5 µM.

Turning to `COCn1cc(-c2nc(NC3CCCNC3)ncc2C(F)(F)F)c2cccc(C#N)c21` (stereo not drawn) [Compound 295], the IC50 in experiment [1] is at least 5 µM; in experiment [2], 0.02 to 0.2 µM; in experiment [3], at least 5 µM; in experiment [4], at least 5 µM; in experiment [5], 1 to 5 µM.

As to `CN(C)S(=O)(=O)c1cccc2c(-c3nc(NC4CCCNC4)ncc3C(F)(F)F)c[nH]c12` (stereo not drawn) [Compound 371], the IC50 in experiment [1] was 0.2 to 5 µM; in experiment [2], under 0.02 µM; in experiment [3] it was 0.2 to 5 µM; in experiment [4] it was 0.2 to 5 µM; in experiment [5], under 0.1 µM.

Regarding `CCP(=O)(CC)c1ccc2c(-c3nc(NC4CCCNC4)ncc3C(F)(F)F)c[nH]c2c1` (stereo not drawn) [Compound 379], the IC50 was at least 5 µM in experiment [1]; 0.02 to 0.2 µM in experiment [2]; at least 5 µM in experiment [3]; at least 5 µM in experiment [4]; 1 to 5 µM in experiment [5].

For `CC1(O)CCN(C(=O)c2ccc3c(-c4nc(N[C@H]5CCCNC5)ncc4C(F)(F)F)c[nH]c3c2)CC1` [Compound 282], the IC50 in experiment [1] is 0.2 to 5 µM; in experiment [2], under 0.02 µM; in experiment [3], at least 5 µM; in experiment [4], 0.2 to 5 µM; in experiment [5], 0.1 to 1 µM.

As for `CC1(C)CCC(Nc2ncc(C(F)(F)F)c(-c3c[nH]c4cc(C#N)ccc34)n2)CN1` (stereo not drawn) [Compound 350], the IC50 in experiment [1] is at least 5 µM; in experiment [2], 0.02 to 0.2 µM; in experiment [3], at least 5 µM; in experiment [4], 0.2 to 5 µM; in experiment [5], 0.1 to 1 µM.

On to `CS(=O)(=O)c1ccc2c(-c3nc(NC4CCCN(C5CC5)C4)ncc3C(F)(F)F)c[nH]c2c1` (stereo not drawn) [Compound 381], for which the IC50 was at least 5 µM in experiment [1]; 0.02 to 0.2 µM in experiment [2]; at least 5 µM in experiment [3]; 0.2 to 5 µM in experiment [4]; 1 to 5 µM in experiment [5].

Consider `CN1CCC[C@H](Nc2ncc(C(F)(F)F)c(-c3c[nH]c4cc(S(C)(=O)=O)ccc34)n2)C1` [Compound 364], for which the IC50 is at least 5 µM in experiment [1]; 0.02 to 0.2 µM in experiment [2]; at least 5 µM in experiment [3]; at least 5 µM in experiment [4]; 1 to 5 µM in experiment [5].

Turning to `N#Cc1ccc2c(-c3nc(NC4CCCNC4)ncc3OC(F)F)c[nH]c2c1` (stereo not drawn) [Compound 301], the IC50 in experiment [1] was at least 5 µM; in experiment [2] it was 0.02 to 0.2 µM; in experiment [3], at least 5 µM; in experiment [4] it was at least 5 µM; in experiment [5], 1 to 5 µM.

Consider `[O-][S+](c1ccc2c(-c3nc(NC4CCCNC4)ncc3C(F)(F)F)c[nH]c2c1)C(F)F` (stereo not drawn) [Compound 380], for which the IC50 in experiment [1] is 0.2 to 5 µM; in experiment [2] it was under 0.02 µM; in experiment [3], 0.2 to 5 µM; in experiment [4], 0.2 to 5 µM; in experiment [5], under 0.1 µM.

On to `N#Cc1ccc2c(-c3nc(N[C@@H]4CNC[C@H](O)C4)ncc3C(F)(F)F)c[nH]c2c1` [Compound 370], for which the IC50 is at least 5 µM in experiment [1]; 0.02 to 0.2 µM in experiment [2]; at least 5 µM in experiment [3]; 0.2 to 5 µM in experiment [4]; 0.1 to 1 µM in experiment [5].

Consider `O=C1CCc2ccc(-c3ccc4c(-c5nc(NC6CCCNC6)ncc5C(F)(F)F)c[nH]c4c3)cc2N1` (stereo not drawn) [Compound 334], for which the IC50 in experiment [1] is 0.2 to 5 µM; in experiment [2], 0.02 to 0.2 µM; in experiment [3], 0.2 to 5 µM; in experiment [4], 0.2 to 5 µM; in experiment [5] it was 0.1 to 1 µM.

Regarding `N#Cc1ccc2c(-c3nc(N[C@H]4CCC5(CCC5)NC4)ncc3C(F)(F)F)c[nH]c2c1` [Compound 378], the IC50 in experiment [1] is at least 5 µM; in experiment [2], 0.02 to 0.2 µM; in experiment [3], at least 5 µM; in experiment [4] it was at least 5 µM; in experiment [5], 1 to 5 µM.

Regarding `CP(C)(=O)c1ccc2c(-c3nc(NC4CCCNC4)ncc3C(F)(F)F)c[nH]c2c1` (stereo not drawn) [Compound 354], the IC50 in experiment [1] was at least 5 µM; in experiment [2], 0.02 to 0.2 µM; in experiment [3], at least 5 µM; in experiment [4], 0.2 to 5 µM; in experiment [5], 1 to 5 µM.

For the compound `CCN1CC(Nc2ncc(C(F)(F)F)c(-c3c[nH]c4cc(S(C)(=O)=O)ccc34)n2)CC(C)(C)C1` (stereo not drawn) [Compound 369], the IC50 was at least 5 µM in experiment [1]; 0.02 to 0.2 µM in experiment [2]; at least 5 µM in experiment [3]; at least 5 µM in experiment [4]; 0.1 to 1 µM in experiment [5].

`FC(F)(F)c1cnc(N[C@H]2CCCNC2)nc1-c1c[nH]c2cc(-c3ccc4ncsc4c3)ccc12` [Compound 343]: the IC50 in experiment [1] is 0.2 to 5 µM; in experiment [2] it was 0.02 to 0.2 µM; in experiment [3], 0.2 to 5 µM; in experiment [4] it was 0.2 to 5 µM; in experiment [5], 0.1 to 1 µM.

On to `FC(F)(F)c1cnc(NC2CCCNC2)nc1-c1c[nH]c2cc(-c3ccnc4ccccc34)ccc12` (stereo not drawn) [Compound 339], for which the IC50 is at least 5 µM in experiment [1]; 0.02 to 0.2 µM in experiment [2]; at least 5 µM in experiment [3]; 0.2 to 5 µM in experiment [4]; 1 to 5 µM in experiment [5].

For `OCc1cncc(-c2ccc3c(-c4nc(NC5CCCNC5)ncc4C(F)(F)F)c[nH]c3c2)c1` (stereo not drawn) [Compound 318], the IC50 is 0.2 to 5 µM in experiment [1]; under 0.02 µM in experiment [2]; 0.2 to 5 µM in experiment [3]; 0.2 to 5 µM in experiment [4]; 0.1 to 1 µM in experiment [5].

As for `FC(F)Sc1ccc2c(-c3nc(NC4CCCNC4)ncc3C(F)(F)F)c[nH]c2c1` (stereo not drawn) [Compound 374], the IC50 was 0.2 to 5 µM in experiment [1]; under 0.02 µM in experiment [2]; 0.2 to 5 µM in experiment [3]; 0.02 to 0.2 µM in experiment [4]; under 0.1 µM in experiment [5].

Take `CC1(C)CNCC(Nc2ncc(Cl)c(-c3c[nH]c4c(S(C)(=O)=O)c(C#N)ccc34)n2)C1` (stereo not drawn) [Compound 382]: the IC50 in experiment [1] is 0.2 to 5 µM; in experiment [2], under 0.02 µM; in experiment [3] it was 0.2 to 5 µM; in experiment [4] it was 0.2 to 5 µM; in experiment [5], under 0.1 µM.

Consider `COC1CCN(C(=O)c2ccc3c(-c4nc(NC5CCCNC5)ncc4C(F)(F)F)c[nH]c3c2)C1` (stereo not drawn) [Compound 281], for which the IC50 in experiment [1] was 0.2 to 5 µM; in experiment [2], under 0.02 µM; in experiment [3] it was 0.2 to 5 µM; in experiment [4], 0.2 to 5 µM; in experiment [5], 0.1 to 1 µM.

For the compound `O=c1[nH]cc(-c2ccc3c(-c4nc(NC5CCCNC5)ncc4C(F)(F)F)c[nH]c3c2)c(=O)[nH]1` (stereo not drawn) [Compound 333], the IC50 in experiment [1] was at least 5 µM; in experiment [2], under 0.02 µM; in experiment [3], at least 5 µM; in experiment [4], 0.2 to 5 µM; in experiment [5], 1 to 5 µM.

`NC(=O)c1cccc(-c2ccc3c(-c4nc(NC5CCCNC5)ncc4C(F)(F)F)c[nH]c3c2)c1` (stereo not drawn) [Compound 314]: the IC50 in experiment [1] is 0.2 to 5 µM; in experiment [2], under 0.02 µM; in experiment [3] it was 0.2 to 5 µM; in experiment [4], 0.2 to 5 µM; in experiment [5], 0.1 to 1 µM.

Regarding `N#Cc1ccc2c(-c3nc(NC4CNCCC4O)ncc3C(F)(F)F)c[nH]c2c1` (stereo not drawn) [Compound 355], the IC50 was at least 5 µM in experiment [1]; 0.02 to 0.2 µM in experiment [2]; at least 5 µM in experiment [3]; 0.2 to 5 µM in experiment [4]; 0.1 to 1 µM in experiment [5].

`CCCc1cnc(N[C@H]2CCCNC2)nc1-c1c[nH]c2c(S(C)(=O)=O)c(C#N)ccc12` [Compound 367]: the IC50 in experiment [1] is at least 5 µM; in experiment [2], 0.02 to 0.2 µM; in experiment [3], at least 5 µM; in experiment [4], at least 5 µM; in experiment [5], 1 to 5 µM.

As for `CC(=O)c1ccc2c(-c3nc(N[C@H]4CCCNC4)ncc3C(F)(F)F)c[nH]c2c1` [Compound 359], the IC50 in experiment [1] is 0.2 to 5 µM; in experiment [2] it was under 0.02 µM; in experiment [3], 0.2 to 5 µM; in experiment [4] it was 0.2 to 5 µM; in experiment [5], under 0.1 µM.

Turning to `O=C(c1ccc2c(-c3nc(NC4CCCNC4)ncc3C(F)(F)F)c[nH]c2c1)N1CCC(O)(C(F)(F)F)C1` (stereo not drawn) [Compound 299], the IC50 was 0.2 to 5 µM in experiment [1]; under 0.02 µM in experiment [2]; 0.2 to 5 µM in experiment [3]; 0.2 to 5 µM in experiment [4]; 1 to 5 µM in experiment [5].
